# System: C57BL/6 responder splenocytes with irradiated BALB/c stimulatory cells
# Experiment: Allo-MLR lymphocyte proliferation assay (3H-thymidine) with AMPs
# Assay type: cell-based, mouse
# Conditions: 20 μM indomethacin alone
# Protocol: FIG. 2. […] (A) Naive C57BL/6 splenocytes (as responders cells) were cultured 1:1 with irradiated (3 Gy) naïve BALB/c stimulatory cells. […] Cell proliferation was analyzed by 3H-thymidine incorporation during the last 18 h of a 5 day culture. Results are expressed as the mean percent alloproliferation inhibition of quadruplicate cultures. Data are representative of two independent experiments. (B) Cytokine analysis of 48 h culture supernatants obtained from mixed lymphocyte reaction assays. Data are presented as means±SD (n=3; P<0.05). (C) Representative flow cytometric analysis of splenic Tregs following 5 days of alto-MLR culture in the absence and presence of AMP co-culture. […] Quadrants are set according to isotype controls. Results shown are representative of three separate experiments. FIG. 3. […] Results are expressed as the mean value±SD. […] Bars indicate mean fold increase±SD mRNA expression level of the indicated gene relative the housekeeping gene GAPDH and normalized to untreated AMP cutlures. (D) Supernatants from allo-MLR/AMP co-cultures inhibit MLR lymphocyte proliferation. […] Cell proliferation was analyzed by ^3H-thymidine incorporation during the last 18 h of a 5 day culture. Results are expressed as the mean percent alloproliferation inhibition of quadruplicate cultures. […]
smiles,measurement,value
COc1ccc2c(c1)c(CC(=O)O)c(C)n2C(=O)c1ccc(Cl)cc1 [indomethacin],allo T-cell proliferation,significantly inhibit

# Source: patent US9457052B2, “Allograft tolerance induction” (The United States of America as Represented by the …, priority 2013, dated 2016)
